Here are results for one compound from US7220775B2, “Compound useful for the treatment of neuropathic pain” (H. Lundbeck A/S, priority 2002, dated 2007).

As a reminder, the pKi is the Ki on a negative log10 scale, so that one unit is a factor of ten. Read a high pKi as a low Ki.

Assay [1] deals with T1, human dopamine D1 receptor (Homo sapiens, UniProt P21728).
T1 construct: purchased BioSignal, Inc. (Montreal, Canada)
The assay is described as follows: Dopamine D1 receptor binding. The conditions noted are these: Table 10. The text has this: (§1) Other receptors: Cell membranes expressing human dopamine D1, D2, D4 and rat D3 receptors were purchased through BioSignal, Inc. (Montreal, Canada). Binding assays using the histamine H, receptor; dopamine receptors; and α1A, α1B, and α2 adrenergic receptors may be carried out according to the procedures described in U.S. Pat. No. 5,780,485, the disclosure of which is hereby incorporated by reference in its entirety into this application. Binding assays using the dopamine D5 receptor may be carried out according to the procedures described in U.S. Pat. No. 5,882,855, the disclosure of which is hereby incorporated by reference in its entirety into this application. Binding assays for the human α1D adrenergic receptor may be carried out according to the procedures described in U.S. Pat. No. 6,156,518, the disclosure of which is hereby incorporated by reference in its entirety into this application.

The next assay deals with T2, Human 5HT2A receptor (Homo sapiens, UniProt P28223).
T2 construct: expressed in transfected cells; host or cells: COS-7 cells, transient, vector pCEXV-3
Description: 5HT2A receptor binding ([3H]ketanserin). The conditions noted are these: Table 8. How it is done: Human 5HT2A Receptor: The coding sequence of the human 5HT2A receptor was obtained from a human brain cortex cDNA library, and cloned into the cloning site of pCEXV-3 eukaryotic expression vector. This construct was transfected into COS-7 cells by the DEAE-dextran method (Cullen, 1987). Cells were harvested after 72 hours and lysed by sonication in 5 mM Tris-HCl, 5 mM EDTA, pH 7.5. The cell lysates were subjected to centrifugation at 1000 rpm for 5 minutes at 4° C., and the supernatant was subjected to centrifugation at 30,000×g for. 20 minutes at 4° C. The pellet was suspended in 50 mM Tris-HCl buffer (pH 7.7 at room temperature) containing 10 mM MgSO4, 0.5 mM EDTA, and 0.1% ascorbate. The affinity of compounds at 5HT2A receptors were determined in equilibrium competition binding assays using [^3H]ketanserin (1 nM). Nonspecific binding was defined by the addition of 10 μM mianserin. The bound radioligand was separated by filtration through GF/B filters using a cell harvester.

For the next assay, the target named is T3, human α2A adrenoceptor (Homo sapiens, UniProt P08913).
T3 construct: expressed in transfected cells
Description: α2A adrenergic receptor binding. As to conditions: Table 10.
Source text: as §1

Assay [2] deals with T4, human α1D adrenergic receptor (Homo sapiens, UniProt P25100).
T4 construct: expressed in transfected cells
The assay is described as follows: α1D adrenergic receptor binding. The conditions noted are these: Table 10.
Source text: as §1

A further assay deals with T5, Human 5HT1D receptor (Homo sapiens, UniProt P28221).
T5 construct: expressed in transfected cells
Description: 5HT1D receptor binding ([3H]-serotonin). As to conditions: Table 8. How it is done: (§2) Human 5HT1B, 5HT1D, 5HT1E, 5HT1F, and 5HT7 Receptors: The cell lysates of LM(tk−) clonal cell line stably transfected with the genes encoding each of these 5HT receptor-subtypes were prepared as described above. Cell membranes were suspended in 50 mM Tris-HCl buffer (pH 7.4 at 37° C.) containing 10 mM MgCl2, 0.2 mM EDTA, 10 µM pargyline, and 0.1% ascorbate. […] Nonspecific binding was determined in the presence of 10 μM serotonin. The bound radioligand was separated by filtration through GF/B filters using a cell harvester.

The target of the next assay is T6, Human 5HT1B receptor (Homo sapiens, UniProt P28222).
T6 construct: expressed in transfected cells
Description: 5HT1B receptor binding ([3H]-serotonin). The conditions noted are these: Table 8. How it is done: as §2

A further assay concerns the target T7, human α2C adrenoceptor (Homo sapiens, UniProt P18825).
T7 construct: expressed in transfected cells
Description: α2C adrenergic receptor binding. The conditions noted are these: Table 10.
Source text: as §1

Another assay addresses T8, Human 5HT1E receptor (Homo sapiens, UniProt P28566).
T8 construct: expressed in transfected cells
Description: 5HT1E receptor binding ([3H]-serotonin). The conditions noted are these: Table 8. How it is done:
as §2

For assay [3], the target named is NE transporter (rNE Uptk) (Rattus norvegicus, UniProt Q9WTR4). Description: Binding at native NE transporter. As to conditions: Table 7, native transporter. How it is done: (§3) The binding properties of the compounds of the present invention were evaluated at one or more cloned receptors or native, tissue-derived transporters, using protocols described below.
(§4) The methods to determine binding affinity at native transporters are described in the following publications: 5HT transporter and NE transporter (Owens et al., 1997), and DA transporter (Javitch et al, 1984).

The test system of assay [4] is NE transporter (rNE Uptk). The assay is described as follows: Binding at native NE transporter. The arrangement: species or system rat. As to conditions: Table 8. How it is done: as §3, §4
A further assay deals with T9, human α1B adrenoceptor (Homo sapiens, UniProt P35368).
T9 construct: expressed in transfected cells
Description: α1B adrenergic receptor binding. The conditions noted are these: Table 10.
Source text: as §1

The next assay deals with T10, Human 5HT1F receptor (Homo sapiens, UniProt P30939).
T10 construct: expressed in transfected cells
The assay is described as follows: 5HT1F receptor binding ([3H]-serotonin). As to conditions: Table 8. How it is done:
as §2

pKi: −log10 of the molar value. Where only a bound is given, the exact number is not on record here.

T6 sequence (P28222 whole entry): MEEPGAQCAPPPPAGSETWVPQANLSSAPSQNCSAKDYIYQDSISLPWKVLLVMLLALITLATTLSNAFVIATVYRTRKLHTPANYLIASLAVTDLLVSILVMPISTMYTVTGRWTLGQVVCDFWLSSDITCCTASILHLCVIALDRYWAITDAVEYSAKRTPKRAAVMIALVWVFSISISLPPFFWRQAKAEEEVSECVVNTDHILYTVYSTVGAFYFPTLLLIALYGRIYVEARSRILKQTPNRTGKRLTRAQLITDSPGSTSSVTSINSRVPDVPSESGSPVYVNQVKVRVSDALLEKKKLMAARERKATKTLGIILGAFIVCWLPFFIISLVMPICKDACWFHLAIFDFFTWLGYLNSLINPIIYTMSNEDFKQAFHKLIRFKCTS
T7 sequence (P18825 whole entry): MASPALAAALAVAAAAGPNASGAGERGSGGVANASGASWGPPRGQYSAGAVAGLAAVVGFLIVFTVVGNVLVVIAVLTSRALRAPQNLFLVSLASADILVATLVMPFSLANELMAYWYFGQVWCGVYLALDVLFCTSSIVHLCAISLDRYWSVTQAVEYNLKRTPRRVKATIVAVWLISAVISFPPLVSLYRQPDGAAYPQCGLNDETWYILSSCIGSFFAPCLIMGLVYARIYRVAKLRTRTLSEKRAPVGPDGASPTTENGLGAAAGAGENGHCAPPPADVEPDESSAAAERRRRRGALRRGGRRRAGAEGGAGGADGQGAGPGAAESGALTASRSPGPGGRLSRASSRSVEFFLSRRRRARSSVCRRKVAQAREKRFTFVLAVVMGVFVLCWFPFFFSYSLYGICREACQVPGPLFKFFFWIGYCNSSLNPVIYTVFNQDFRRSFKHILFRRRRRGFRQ
T1 sequence (P21728 whole entry): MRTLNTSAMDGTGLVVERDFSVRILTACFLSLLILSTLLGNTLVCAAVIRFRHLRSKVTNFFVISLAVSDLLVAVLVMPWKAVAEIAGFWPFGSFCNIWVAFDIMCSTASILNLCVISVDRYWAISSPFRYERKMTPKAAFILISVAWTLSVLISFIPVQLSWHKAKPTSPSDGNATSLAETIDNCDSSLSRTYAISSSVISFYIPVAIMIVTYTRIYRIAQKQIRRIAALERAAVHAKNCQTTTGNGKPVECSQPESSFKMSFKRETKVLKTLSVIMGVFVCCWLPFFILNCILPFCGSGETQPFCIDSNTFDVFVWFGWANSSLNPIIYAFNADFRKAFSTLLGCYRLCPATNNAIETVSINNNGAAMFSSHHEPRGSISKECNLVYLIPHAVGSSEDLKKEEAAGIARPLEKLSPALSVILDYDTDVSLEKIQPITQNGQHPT
T2 sequence (P28223 whole entry): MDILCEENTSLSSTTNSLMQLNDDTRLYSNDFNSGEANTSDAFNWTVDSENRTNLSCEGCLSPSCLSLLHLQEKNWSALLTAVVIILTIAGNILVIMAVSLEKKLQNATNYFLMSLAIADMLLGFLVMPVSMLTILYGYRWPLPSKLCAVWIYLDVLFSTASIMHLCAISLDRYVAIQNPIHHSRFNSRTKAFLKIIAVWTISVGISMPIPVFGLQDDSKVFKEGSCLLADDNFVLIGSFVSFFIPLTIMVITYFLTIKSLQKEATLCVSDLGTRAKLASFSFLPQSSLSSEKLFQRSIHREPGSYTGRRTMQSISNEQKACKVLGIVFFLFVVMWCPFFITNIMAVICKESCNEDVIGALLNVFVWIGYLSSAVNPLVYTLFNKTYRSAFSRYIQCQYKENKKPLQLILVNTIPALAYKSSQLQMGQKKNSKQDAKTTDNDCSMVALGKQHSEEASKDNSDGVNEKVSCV
T9 sequence (P35368 whole entry): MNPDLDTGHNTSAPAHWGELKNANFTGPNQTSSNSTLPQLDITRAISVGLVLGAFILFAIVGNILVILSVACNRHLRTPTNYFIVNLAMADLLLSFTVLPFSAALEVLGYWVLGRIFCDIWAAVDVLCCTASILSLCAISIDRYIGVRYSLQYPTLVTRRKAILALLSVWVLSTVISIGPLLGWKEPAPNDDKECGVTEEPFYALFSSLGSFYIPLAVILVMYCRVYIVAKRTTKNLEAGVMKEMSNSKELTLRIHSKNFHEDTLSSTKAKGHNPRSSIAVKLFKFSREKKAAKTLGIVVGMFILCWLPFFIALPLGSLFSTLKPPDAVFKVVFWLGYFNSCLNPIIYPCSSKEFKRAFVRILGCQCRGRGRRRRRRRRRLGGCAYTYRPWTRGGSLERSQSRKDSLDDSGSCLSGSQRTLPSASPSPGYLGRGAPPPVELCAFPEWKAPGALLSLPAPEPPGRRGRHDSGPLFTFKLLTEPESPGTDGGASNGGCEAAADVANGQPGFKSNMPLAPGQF
T8 sequence (P28566 whole entry): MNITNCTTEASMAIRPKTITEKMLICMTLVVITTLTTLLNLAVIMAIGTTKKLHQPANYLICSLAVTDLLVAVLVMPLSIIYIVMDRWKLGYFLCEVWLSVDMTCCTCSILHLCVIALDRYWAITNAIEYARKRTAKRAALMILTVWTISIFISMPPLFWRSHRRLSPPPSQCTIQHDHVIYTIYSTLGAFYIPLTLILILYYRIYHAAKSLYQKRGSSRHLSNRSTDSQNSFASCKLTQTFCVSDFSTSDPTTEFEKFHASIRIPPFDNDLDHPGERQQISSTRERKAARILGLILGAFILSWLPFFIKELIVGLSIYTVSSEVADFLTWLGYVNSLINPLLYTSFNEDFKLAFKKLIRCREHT
T3 sequence (P08913 whole entry): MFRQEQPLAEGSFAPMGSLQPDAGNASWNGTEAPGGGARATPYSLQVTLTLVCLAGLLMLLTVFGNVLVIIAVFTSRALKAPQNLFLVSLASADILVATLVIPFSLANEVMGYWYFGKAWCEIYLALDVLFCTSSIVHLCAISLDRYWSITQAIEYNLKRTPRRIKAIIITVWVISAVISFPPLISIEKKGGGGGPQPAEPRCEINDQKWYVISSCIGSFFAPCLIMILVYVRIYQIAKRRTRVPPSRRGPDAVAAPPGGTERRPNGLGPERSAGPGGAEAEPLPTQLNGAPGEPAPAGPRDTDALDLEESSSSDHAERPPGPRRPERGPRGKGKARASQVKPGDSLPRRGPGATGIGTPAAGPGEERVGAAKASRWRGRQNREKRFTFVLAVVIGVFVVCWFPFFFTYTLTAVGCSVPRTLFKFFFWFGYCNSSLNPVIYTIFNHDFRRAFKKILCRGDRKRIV
T5 sequence (P28221 whole entry): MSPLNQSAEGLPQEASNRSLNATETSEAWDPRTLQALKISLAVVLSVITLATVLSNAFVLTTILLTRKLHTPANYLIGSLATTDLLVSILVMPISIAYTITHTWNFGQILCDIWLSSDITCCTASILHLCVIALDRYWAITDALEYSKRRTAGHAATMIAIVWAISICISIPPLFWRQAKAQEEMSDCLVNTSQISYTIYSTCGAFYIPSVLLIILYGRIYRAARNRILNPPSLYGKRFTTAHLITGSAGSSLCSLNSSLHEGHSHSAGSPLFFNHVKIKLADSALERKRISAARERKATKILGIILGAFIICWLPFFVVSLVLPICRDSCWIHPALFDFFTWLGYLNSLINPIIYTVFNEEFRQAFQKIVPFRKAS
T10 sequence (P30939 whole entry): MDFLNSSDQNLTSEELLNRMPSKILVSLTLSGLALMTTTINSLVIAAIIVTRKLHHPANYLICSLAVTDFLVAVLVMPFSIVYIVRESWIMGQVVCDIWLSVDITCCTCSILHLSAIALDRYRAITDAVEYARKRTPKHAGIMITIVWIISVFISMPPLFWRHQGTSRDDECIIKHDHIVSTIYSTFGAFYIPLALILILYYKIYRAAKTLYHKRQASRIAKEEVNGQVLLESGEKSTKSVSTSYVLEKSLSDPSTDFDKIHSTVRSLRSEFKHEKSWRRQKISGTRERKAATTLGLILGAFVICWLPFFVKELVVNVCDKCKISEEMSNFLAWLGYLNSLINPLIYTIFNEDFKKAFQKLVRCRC
T4 sequence (P25100 whole entry): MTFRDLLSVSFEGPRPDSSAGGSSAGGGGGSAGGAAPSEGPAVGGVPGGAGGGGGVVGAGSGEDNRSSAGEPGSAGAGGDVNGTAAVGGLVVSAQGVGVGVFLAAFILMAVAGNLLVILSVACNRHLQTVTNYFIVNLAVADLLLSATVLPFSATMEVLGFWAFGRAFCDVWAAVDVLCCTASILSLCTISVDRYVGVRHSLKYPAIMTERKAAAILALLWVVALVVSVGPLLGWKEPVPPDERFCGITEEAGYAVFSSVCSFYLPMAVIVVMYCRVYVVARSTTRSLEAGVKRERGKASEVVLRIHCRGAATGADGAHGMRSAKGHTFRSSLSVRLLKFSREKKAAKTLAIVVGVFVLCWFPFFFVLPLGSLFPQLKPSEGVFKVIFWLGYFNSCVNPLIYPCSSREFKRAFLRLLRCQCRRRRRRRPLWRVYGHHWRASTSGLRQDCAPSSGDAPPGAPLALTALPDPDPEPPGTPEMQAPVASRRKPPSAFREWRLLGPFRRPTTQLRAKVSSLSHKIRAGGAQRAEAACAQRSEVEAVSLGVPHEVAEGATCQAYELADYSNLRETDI

As for `O=C1C(=Nc2cccc(C(F)(F)F)c2)c2ccccc2N1c1ccccc1` [Example 92, 1-PHENYL-3-[[3-(TRIFLUOROMETHYL)PHENYL]IMINO]-1,3-DIHYDRO-2H-INDOL-2-ONE], the “selectivity ratio hD1 (Ki hD1 / Ki hGAL3)” value in assay [1] is given as >100. For the same compound, on Human 5HT2A receptor, the “selectivity ratio h5HT2A (Ki h5HT2A / Ki hGAL3)” value is reported as >100. For the same compound, the “selectivity ratio hα2A (Ki hα2A / Ki hGAL3)” value at human α2A adrenoceptor was >100. In assay [2], the “selectivity ratio hα1D (Ki hα1D / Ki hGAL3)” value was >100. Moreover, the “selectivity ratio h5HT1D (Ki h5HT1D / Ki hGAL3)” value on Human 5HT1D receptor was >100. Besides, the “selectivity ratio h5HT1B (Ki h5HT1B / Ki hGAL3)” value on Human 5HT1B receptor is >100. The “selectivity ratio hα2C (Ki hα2C / Ki hGAL3)” value on human α2C adrenoceptor is >100. Besides, the “selectivity ratio h5HT1E (Ki h5HT1E / Ki hGAL3)” value on Human 5HT1E receptor is >100. For the same compound, the pKi in [3] is 4.47. The “selectivity ratio rNE Uptk (Ki rNE Uptk / Ki hGAL3)” value in assay [4] was >100. In addition, the “selectivity ratio hα1B (Ki hα1B / Ki hGAL3)” value on human α1B adrenoceptor is listed as >100. Moreover, the “selectivity ratio h5HT1F (Ki h5HT1F / Ki hGAL3)” value at Human 5HT1F receptor is on record as >100.
